One series deals with T1, OAT2 (Homo sapiens, UniProt Q9Y694).
T1 construct: expressed in transfected cells; host or cells: MDCK-II
T1 sequence (Q9Y694 1-548): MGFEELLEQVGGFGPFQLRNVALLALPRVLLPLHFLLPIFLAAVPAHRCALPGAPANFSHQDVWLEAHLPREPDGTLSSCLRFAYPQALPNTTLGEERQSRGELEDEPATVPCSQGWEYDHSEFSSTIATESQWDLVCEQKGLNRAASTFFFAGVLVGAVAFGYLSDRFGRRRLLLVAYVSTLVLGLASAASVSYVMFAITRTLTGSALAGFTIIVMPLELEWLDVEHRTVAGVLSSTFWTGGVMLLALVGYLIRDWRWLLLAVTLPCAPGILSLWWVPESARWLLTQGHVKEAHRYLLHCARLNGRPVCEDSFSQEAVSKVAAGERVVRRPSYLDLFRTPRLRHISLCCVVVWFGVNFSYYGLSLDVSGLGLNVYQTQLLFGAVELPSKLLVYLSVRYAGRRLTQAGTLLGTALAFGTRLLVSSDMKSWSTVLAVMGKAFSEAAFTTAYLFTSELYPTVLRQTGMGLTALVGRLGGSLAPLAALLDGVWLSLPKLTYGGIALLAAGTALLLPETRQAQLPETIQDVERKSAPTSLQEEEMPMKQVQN
In words: Inhibition of OAT2 mediated transport of creatinine in transfected MDCK-II cells (Example 3). It counts as in vitro ADME. The note with it: at concentration of 10 μM. As to the method:
(§1) Substrate dependent inhibition is common among transporters including MATE1 and MATE2-K. In this study, creatinine was used as the probe substrate to assess the inhibitory potency of Tucatinib and ONT-993. OAT2, OCT2, OCT3, MATE1, and MATE2-K are the renal transporters identified to transport creatinine. Tucatinib and its metabolite ONT-993 were tested as potential inhibitors of OAT2, OCT2, MATE1, and MATE2-K mediated transport using creatinine as a probe substrate.
(§2) For this study, MDCK-II were maintained in DMEM with low glucose and 10% FBS. Cells were seeded at 60K±10K cells/well on 96-well, transwell membrane plates approximately 24 hours before transfection. Transport assays were carried out approximately 48 hours after transfection. Cells were transfected and treated to express the transporter of interest or treated with a control vector. The transport of creatinine was determined by radiometric detection.
(§3) Net transporter mediated uptake of the substrate by each transporter was calculated as follows: Net Transporter Mediated Substrate Uptake (pmol/min/cm^2)=(Cellular accumulation in the presence of the transporter)−(Mean cellular accumulation in the absence of the transporter.
(§4) Percent inhibition was calculated as follows: Percent inhibition=100−(100*(transporter mediated uptake)with inhibition/(transporter mediated uptake)without inhibition) […]

Series [1] is described as follows: Example 2 Part E: single- and multiple-dose PK of tucatinib and ONT-993. The note with it: tucatinib 300 mg BID, Day 14 vs Day 8. It is filed as in vivo, human.
A further series has as its target T2, OCT2 (Homo sapiens, UniProt O15244).
T2 construct: expressed in transfected cells; host or cells: MDCK-II
T2 sequence (O15244 1-555): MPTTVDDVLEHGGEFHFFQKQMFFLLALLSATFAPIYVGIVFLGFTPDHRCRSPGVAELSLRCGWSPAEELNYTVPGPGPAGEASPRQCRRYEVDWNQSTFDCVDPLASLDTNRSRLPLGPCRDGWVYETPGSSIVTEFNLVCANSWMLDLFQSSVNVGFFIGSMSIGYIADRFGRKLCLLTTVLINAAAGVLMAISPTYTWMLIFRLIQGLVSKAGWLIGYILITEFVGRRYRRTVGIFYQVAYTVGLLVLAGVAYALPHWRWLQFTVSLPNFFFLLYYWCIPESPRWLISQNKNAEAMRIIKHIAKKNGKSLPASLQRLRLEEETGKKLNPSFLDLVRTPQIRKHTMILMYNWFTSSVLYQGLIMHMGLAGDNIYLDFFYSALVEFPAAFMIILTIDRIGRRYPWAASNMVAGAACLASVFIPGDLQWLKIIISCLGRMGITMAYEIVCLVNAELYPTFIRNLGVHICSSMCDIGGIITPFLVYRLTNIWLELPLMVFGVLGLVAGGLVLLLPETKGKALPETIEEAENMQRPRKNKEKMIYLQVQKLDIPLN
Put plainly: Inhibition of OCT2 mediated transport of creatinine in transfected MDCK-II cells (Example 3). It counts as in vitro ADME. To be noted: probe substrate creatinine, 0.03 to 10 μM. As to the method:
as §1, §2, §3, §4

In another series the target is T3, MATE1 (Homo sapiens, UniProt Q96FL8).
T3 sequence (Q96FL8 1-570): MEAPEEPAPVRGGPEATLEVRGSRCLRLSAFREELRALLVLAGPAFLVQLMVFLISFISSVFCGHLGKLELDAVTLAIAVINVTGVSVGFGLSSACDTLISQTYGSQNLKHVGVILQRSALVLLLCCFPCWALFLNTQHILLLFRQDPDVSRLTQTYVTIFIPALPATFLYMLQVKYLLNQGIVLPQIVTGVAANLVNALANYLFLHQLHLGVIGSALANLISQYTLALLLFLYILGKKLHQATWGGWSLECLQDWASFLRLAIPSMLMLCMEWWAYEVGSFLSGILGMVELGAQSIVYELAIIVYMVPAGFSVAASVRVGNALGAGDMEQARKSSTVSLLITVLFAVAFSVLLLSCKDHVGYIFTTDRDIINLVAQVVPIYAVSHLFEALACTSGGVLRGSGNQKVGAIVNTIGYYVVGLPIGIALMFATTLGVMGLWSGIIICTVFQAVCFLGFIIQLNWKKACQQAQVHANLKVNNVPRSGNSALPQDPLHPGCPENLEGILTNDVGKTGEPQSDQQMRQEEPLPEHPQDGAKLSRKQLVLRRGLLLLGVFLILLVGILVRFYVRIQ
In words: Inhibition of MATE1 mediated transport of creatinine in transfected MDCK-II cells (Example 3). It counts as in vitro ADME. Set-up: expressed in transfected cells; host or cells: MDCK-II. The note with it: probe substrate creatinine. As to the method: OAT2, OCT2, OCT3, MATE1, and MATE2-K are the renal transporters identified to transport creatinine.
as §2, §3
Percent inhibition was calculated as follows: Percent inhibition=100−(100*(transporter mediated uptake)with inhibition/(transporter mediated uptake)without inhibition)
The following equation was used to determine IC50 values of uptake assays: […]

As for `Cc1cc(Nc2ncnc3ccc(NC4=NC(C)(CO)CO4)cc23)ccc1Oc1ccn2ncnc2c1` (stereo not shown) [ONT-993], the “Maximum inhibition of OAT2 mediated transport of creatinine” value at OAT2 is 44.9%. Besides, in series [1], the “Rac (accumulation ratio) after multiple dosing” value was 2.01. For the same compound, the IC50 on OCT2 was determined as 544 ± 278 nM; against MATE1, 86.3 ± 12.6 nM.

(Values after patent US20220193076A1, “METHODS OF TREATING BREAST CANCER WITH TUCATINIB” (Seagen Inc., priority 2019, published 2022).)
